According to US6338963B1, “Use of carbon monoxide dependent guanylyl cyclase modifiers to stimulate neuritogenesis” (NeoTherapeutics, Inc., priority 1994, dated 2002):

Experiments:
[1] = test system: FGF-2 mRNA; experiment: Northern/slot blot of neurotrophin mRNA from astrocytes: FGF-2; type: cell-based, NIH Swiss mice; design: key to FGF-2 mRNA: The conditions which produced a detectable amount of each of the neurotrophin mRNAs are indicated by a “+”; a “++” indicating that at least twice the detectable amount was present; Those blots which were negative are indicated by a “−”; conditions: for FGF-2 mRNA: 24 hours
Experimental: Induction of neurotrophin mRNA was determined by northern blot analysis of astrocytes cultured with AIT-082, NGF, or both. The cells were harvested and RNA extracted at 24 hours after treatment.
More particularly, astrocytes from the cerebral cortex of NIH Swiss mice (Harlan) were isolated. Briefly, newborn pups (0-24 hours) were decapitated. Their brains were removed under aseptic conditions and were placed in modified Dulbecco's medium (DMEM) containing 20% heat-inactivated horse serum (Hyclone) (“complete medium”). The neopallium was then dissected from each cerebral hemisphere and minced into 1 mm cubes.
The astrocytes were then isolated by mechanical dissociation. The cubes were vortexed at maximum speed for one minute. The cell suspension was then passed first through 75 mm Nitex then through 10 mm Nitex. The resulting cell suspension was diluted in complete medium to a final concentration of one brain per 10 ml of complete medium. Ten milliliters of the diluted cell suspension was added to each 100 mm Falcon tissue culture plate (Fisher). After 3 days the medium was replaced with 10 ml fresh complete medium and subsequently was replaced twice weekly with DMEM containing 10% heat inactivated horse serum (“growth medium”). After two weeks in culture the astrocytes formed a confluent monolayer.
For RNA extraction, astrocytes were trypsinized. The astrocytes were then replated onto 100 mm PORN coated plates at a cell density of 10^6 cells per plate (10 ml growth medium). After 2 hrs PBS, guanosine (Guo), or GTP at 10 mM were added to the appropriate plates. Total RNA was harvested from 1.5×10^7 cells for each treatment, 4 and 24 hrs after treatment using TRIzol reagent and supplier protocol (GIBCO BRL/Life Technologies, Inc.). For slot blots, total RNA was bound to Hybond-N filters (Amersham/United States Biochemicals) as described in Transfer and Immobilization of Nucleic Acids and Proteins to S & S Solid Supports (S and S Protocols: Schleicher & Schuell, New Hampshire, USA). Northern blots were also performed using […] total RNA from each sample. These were electrophoresed in 1% agarose gels containing formaldehyde and blotted onto Hybond-N filters according to S and S protocols.
The blots were probed with ^32P-labeled cDNA (NGF, NT-3 and BDNF probes) or oligonucleotide probe (FGF-2) by hybridization in Piperazine-N,N′-bis-(2-ethanesulfonic acid) (PIPES) buffer (50 mM PIPES, pH 6.8; 50 mM NaH2PO4; 0.1 M NaCl; 5% SDS and 1 mM EDTA) overnight at 50° C. […] Various concentrations ([…] of total RNA), as determined by spectrophotometry, of each sample were blotted and probed so that quantification could be done after insuring a linear film response. Quantification was performed using MCID Image Analysis (St. Catherine's, Ontario, Canada). […]

[2] = test system: TGFβ2; experiment: TGFβ2 release from rat cultured astrocytes (ELISA); type: cell-based
Experimental: NGF and TGFβ2 levels were assayed in the culture medium of the astrocytes by specific ELISA assays using kits from Roche (Germany) and Promega (USA) respectively. NGF basal levels were 56.3±3.2 pg/ml. TGFβ2 levels were 9.1±0.06 pg/ml.
In FIG. 61, the dose-response curves of NGF and TGFβ2 release from rat cultured astrocytes as the result of exposure to AIT-082 are shown.

[3] = test system: MAP kinases ERK1 (44 kDa) and ERK2 (42 kDa); experiment: Western blot of phospho-ERK1/2 in cultured astrocytes; type: cell-based, rat; conditions: for activation (phosphorylation) of MAP kinases ERK1 and ERK2: astrocyte cytosolic proteins
Experimental: In FIG. 60, the activation of MAP kinases ERK1 (44 kDa) and ERK2 (42 kDa) by guanosine is shown. Cultured astrocytes were harvested at 4° C. in lysis buffer specific for MAP kinase: 25 mM Tris buffer, pH 7.4, containing 150 mM NaCl, 100 μM sodium orthovanadate, 1.5 mM MgCl2, 1.0 mM EDTA, 1% NP40, 10% glycerol, 1 mM PMSF, 5 μg/ml leupeptin, and 10 μg/ml aprotinin and sonicated and centrifuged at 14,000 rpm for 5 min. Aliquots of the supernatants were processed for the assessment of protein concentration (M. M. Bradford, “A Rapid and Sensitive Method for the Quantitation of Microgram Quantities of Protein Using the Principle of Protein-Dye Binding,” Anal. Biochem. 72: 248-254 (1976)). Electrophoresis was performed in 12% SDS-PAGE, using 20 μg of total protein per lane and separated proteins were then transferred onto a PVDF membrane (Bio-Rad Laboratories, Italy). Membranes were first incubated with polyclonal primary antibody (rabbit phospho-ERK1/2 antibody, New England Biolabs, Germany; final dilution 1:1000) for 1 hour and then with donkey anti-rabbit HPR-conjugated secondary antibody (Amersham, Italy; final dilution 1:5000) for another 1 hour, both at room temperature. Immunocomplexes were visualized using the enhancing chemiluminescence detection system (ECL) (Amersham, Italy).
This activation was no longer evident after 10 minutes or 20 minutes of stimulation. […] This effect is likely independent of the activity of growth factors, such as NGF, that also act through this molecular pathway. Cultured astrocytes were harvested at 4° C. in lysis buffer specific for MAP kinase: 25 mM Tris buffer, pH 7.4, containing 150 mM NaCl, 100 μM sodium orthovanadate, 1.5 mM MgCl2, 1.0 mM EDTA, 1% NP40, 10% glycerol, 1 mM PMSF, 5 μg/ml leupeptin, and 10 μg/ml aprotirin and sonicated and centrifuged at 14,000 prm for 5 min. Aliquots of the supernatants were processed for the assessment of protein concentration (Bradford, 1976). […]

Compound | FGF-2 mRNA ([1]; AIT-082 100 mM) | FGF-2 mRNA ([1]; AIT-082 + NGF (40 ng/ml)) | increase of TGFβ2 production as compared to a control ([2]; rat cultured astrocytes) [fold] | time of maximal activation of the enzyme cascade ([3]; AIT-082 100 μM, no longer evident after 10 or 20 minutes) [min] | activation (phosphorylation) of MAP kinases ERK1 and ERK2 [3] | FGF-2 mRNA in astrocytes ([1]; guanosine, 24 hours after addition) | release of TGFβ2 from astrocytes ([2]; exposure for 24 hours)
O=C(CCn1cnc2c(=O)[nH]cnc21)Nc1ccc(C(=O)O)cc1 [AIT-082, N-4-carboxyphenyl-3-(6-oxohydropurin-9-yl)propanamide] | ++ | + | 1.7 | 5 | stimulated the phosphorylation of MAP kinases ERK1 (44 kDa) and ERK2 (42 kDa) |  | 
Nc1nc2c(ncn2[C@@H]2O[C@H](CO)[C@@H](O)[C@H]2O)c(=O)[nH]1 [guanosine] |  |  |  |  | activation | increased | dose-dependent increase
